Measurements taken from US12653191B2, “Active compound combinations” (Bayer Aktiengesellschaft, priority 2020, dated 2026).
Read-outs that look alike come from different tables or passages of the source.

How the values were obtained:
Alternaria alternate = test: in vitro-Test with fungal microorganisms, Method A (tables A1-A12); format: cell-based, Alternaria alternata; settings: Alternaria, applied alone, read-out: Efficacy %
Outline: (§1)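 Growth inhibition was measured photometrically at 620 nm 3–5 days after application, with 100% efficacy meaning no growth and 0% meaning growth equal to the untreated control. Fungal spore or mycelium suspension in potato dextrose broth was added onto solvent-evaporated compound and incubated at 20° C and 85% relative humidity.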

Botrytis cinerea = test: in vitro-Test with fungal microorganisms, Method A (tables B1-B14); format: cell-based; settings: Botrytis cinerea
Outline: as §1

Cercospora beticola [1] = test: in vitro-Test with fungal microorganisms, Method A (tables C1-C10); format: cell-based; settings: Cercospora beticola, read-out: Efficacy %
Outline: as §1

Cercospora beticola [2] = test: in vitro-Test with fungal microorganisms, Method B (tables C11-C20); format: cell-based; settings: Cercospora beticola, single compound, read-out: Efficacy %
Outline: (§2)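 Efficacy, relative to untreated control (0% = growth as in control, 100% = no growth), from photometric growth measurement at 600 nm after 3 to 7 days at 20° C., 85% relative humidity. Compound applied in methanol+emulsifier, solvent evaporated, then spore/mycelium-amended liquid medium added.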

[3] = test system: Colletotrichum lindemuthianum; test: in vitro-Test with fungal microorganisms, Method A (tables D1-D8); format: cell-based; settings: Colletotrichum lindemuthianum, read-out: Efficacy %
Outline: as §1

Cordana musae [4] = test: in vitro-Test with fungal microorganisms, Method A (tables E1-E8); format: cell-based; settings: mixing partner alone
Outline: as §1

Cordana musae [5] = test: in vitro-Test with fungal microorganisms, Method B (tables E9-E16); format: cell-based; settings: Neocordana musae, single active, read-out: Efficacy
Outline: as §2

Diaporthe citri = test: in vitro-Test with fungal microorganisms, Method A (tables F1-F11); format: cell-based; settings: Diaporthe citri, applied alone, read-out: Efficacy
Outline: as §1

Fusarium culmorum [6] = test: in vitro-Test with fungal microorganisms, Method A (tables G1-G4); format: cell-based; settings: Fusarium culmorum, alone, read-out: Efficacy
Protocol: (§3) Example: In Vitro-Test with Fungal Microorganisms
Wells of 96-well microtiter plates are filled with 10 μl of a preparation of test compound or compound combination in methanol+emulsifier alkylaryl-polyglycol-ether. Thereafter, the solvent is evaporated in a hood. At the next step, 100 μl of liquid potato dextrose medium is given into each well, that has been amended with an appropriate concentration of spores or mycelium suspension of the test fungus.
With the aid of a photometer, the extinction in all wells is measured at the wavelength of 620 nm.
The microtiter plates are incubated at 20° C. and 85% relative humidity. The inhibition of growth is determined again photometrically 3-5 days after the application. Efficacy is calculated in relation to the untreated control, 0% efficacy means fungal growth as high as in untreated control while 100% efficacy means no fungal growth is measured.
(§4) The data in tables A1 to A12, B1 to B14, C1 to C10, D1 to D8, E1 to E8, F1 to F11, G1 to G4, H1 to H4 and I1 to I5 were collected according to Method A. The data in tables A13 to A22, B15 to B18, C11 to C20, E9 to E16, F12 to F15, G5 to G15, H5 to H8, I6 to I11 and J1 to J11 were collected according to Method B.

Fusarium culmorum [7] = test: in vitro-Test with fungal microorganisms, Method B (tables G5-G15); format: cell-based; settings: Fusarium culmorum, 1 ppm, alone; read-out: Efficacy
Outline: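 Steps: solvent evaporation leaves the compound coating the wells; fungus-inoculated liquid growth medium goes on top; absorbance at 600 nm is measured; incubation runs 3 to 7 days at 20° C. with 85% relative humidity. Inhibition is then read photometrically and expressed as efficacy against untreated control.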

Parastagonospora nodorum = test: in vitro-Test with fungal microorganisms, Method B (tables H5-H8); format: cell-based; settings: Parastagonospora nodorum, read-out: Efficacy
Protocol: as §3
Wells of 96-well microtiter plates are filled with 30 μl of a preparation of test compound or compound combination in methanol+emulsifier alkylaryl-polyglycol-ether. Thereafter, the solvent is evaporated in a hood. At the next step, 200 μl of liquid growth medium is given, that has been amended with an appropriate concentration of spores or mycelium suspension of the test fungus.
With the aid of a photometer, the extinction in all wells is measured at the wavelength of 600 nm.
The microtiter plates are incubated for 3 to 7 days at 20° C. and 85% relative humidity. After the incubation inhibition of growth is determined photometrically. Efficacy is calculated in relation to the untreated control, 0% efficacy means fungal growth as high as in untreated control while 100% efficacy means no fungal growth is measured.
as §4

Colletotrichum coccodes = test: in vitro-Test with fungal microorganisms, Method B (tables J1-J11); format: cell-based; settings: Colletotrichum coccodes, read-out: Efficacy %
Outline: as §2

**Q.** CC(C)(C)C(O)(CCc1ccc(Cl)cc1)Cn1cncn1 (centres unmarked) [(1.021) tebuconazole, tebuconazole] was tested. Which inhibition of growth at 0.008 ppm (Alternaria alternate; 0.008 ppm) did it give?
**A.** 13%

**Q.** And the inhibition of growth at 0.04 ppm (Alternaria alternate; 0.04 ppm)?
**A.** 19%

**Q.** What about the inhibition of growth at 0.2 ppm (Alternaria alternate; 0.2 ppm) of the same compound?
**A.** 26%

**Q.** And the inhibition of growth at 0.04 ppm (Botrytis cinerea; read-out: Efficacy)?
**A.** 0%

**Q.** And the inhibition of growth at 0.2 ppm (Botrytis cinerea; read-out: Efficacy)?
**A.** 37%

**Q.** And the inhibition of growth at 1 ppm (Botrytis cinerea; 1.0 ppm, read-out: Efficacy)?
**A.** 94%

**Q.** And the inhibition of growth at 0.008 ppm (Botrytis cinerea; alone, 0.008 ppm, read-out: Efficacy %)?
**A.** 0%

**Q.** What about the inhibition of growth at 0.04 ppm (Botrytis cinerea; alone, read-out: Efficacy %) of the same compound?
**A.** 0%

**Q.** What about the inhibition of growth at 0.2 ppm (Botrytis cinerea; alone, read-out: Efficacy %) of the same compound?
**A.** 45%

**Q.** What about the inhibition of growth at 0.008 ppm (Cercospora beticola [1]; 0.008 ppm alone) of the same compound?
**A.** 12%

**Q.** What about the inhibition of growth at 0.04 ppm (Cercospora beticola [1]; 0.04 ppm alone) of the same compound?
**A.** 32%

**Q.** What about the inhibition of growth at 0.2 ppm (Cercospora beticola [1]; 0.2 ppm alone) of the same compound?
**A.** 100%

**Q.** What about the inhibition of growth at 0.008 ppm (Cercospora beticola [2]; 0.008 ppm) of the same compound?
**A.** 4%

**Q.** What about the inhibition of growth at 0.04 ppm (Cercospora beticola [2]; 0.04 ppm) of the same compound?
**A.** 1%

**Q.** And the inhibition of growth at 0.2 ppm (Cercospora beticola [2]; 0.2 ppm)?
**A.** 62%

**Q.** And the inhibition of growth at 0.008 ppm ([3]; mixing partner alone, 0.008 ppm)?
**A.** 32%

**Q.** What about the inhibition of growth at 0.04 ppm ([3]; mixing partner alone, 0.04 ppm) of the same compound?
**A.** 0%

**Q.** And the inhibition of growth at 0.2 ppm ([3]; mixing partner alone, 0.2 ppm)?
**A.** 17%

**Q.** And the inhibition of growth at 1 ppm ([3]; mixing partner alone, 1.0 ppm)?
**A.** 35%

**Q.** And the inhibition of growth at 0.008 ppm ([3]; single active at 0.008 ppm)?
**A.** 0%

**Q.** What about the inhibition of growth at 0.04 ppm ([3]; single active at 0.04 ppm) of the same compound?
**A.** 13%

**Q.** And the inhibition of growth at 0.2 ppm ([3]; single active at 0.2 ppm)?
**A.** 0%

**Q.** What about the inhibition of growth at 1 ppm ([3]; single active at 1.0 ppm) of the same compound?
**A.** 4%

**Q.** And the inhibition of growth at 0.04 ppm (Cordana musae [4]; Neocordana musae, 0.04 ppm, read-out: Efficacy %)?
**A.** 0%

**Q.** What about the inhibition of growth at 0.2 ppm (Cordana musae [4]; Neocordana musae, 0.2 ppm, read-out: Efficacy %) of the same compound?
**A.** 29%

**Q.** And the Efficacy % (Cordana musae [4]; 1.0 ppm)?
**A.** 99%

**Q.** What about the inhibition of growth at 0.04 ppm (Cordana musae [5]; 0.04 ppm) of the same compound?
**A.** 2%

**Q.** What about the inhibition of growth at 0.2 ppm (Cordana musae [5]; 0.2 ppm) of the same compound?
**A.** 25%

**Q.** What about the inhibition of growth at 1 ppm (Cordana musae [5]; 1 ppm) of the same compound?
**A.** 71%

**Q.** And the inhibition of growth at 0.008 ppm (Diaporthe citri; 0.008 ppm)?
**A.** 28%

**Q.** What about the inhibition of growth at 0.2 ppm (Diaporthe citri; 0.2 ppm) of the same compound?
**A.** 89%

**Q.** And the inhibition of growth at 0.008 ppm (Fusarium culmorum [6]; 0.008 ppm)?
**A.** 8%

**Q.** And the inhibition of growth at 0.04 ppm (Fusarium culmorum [6]; 0.04 ppm)?
**A.** 21%

**Q.** And the inhibition of growth at 1 ppm (Fusarium culmorum [6]; 1.0 ppm)?
**A.** 98%

**Q.** And the inhibition of growth at 1 ppm (Fusarium culmorum [7])?
**A.** 79%

**Q.** What about the inhibition of growth at 0.008 ppm (Parastagonospora nodorum; 0.008 ppm) of the same compound?
**A.** 0%

**Q.** What about the inhibition of growth at 0.04 ppm (Parastagonospora nodorum; 0.04 ppm) of the same compound?
**A.** 0%

**Q.** And the inhibition of growth at 0.2 ppm (Parastagonospora nodorum; 0.2 ppm)?
**A.** 60%

**Q.** And the inhibition of growth at 1 ppm (Parastagonospora nodorum; 1 ppm)?
**A.** 100%

**Q.** And the inhibition of growth at 0.04 ppm (Colletotrichum coccodes; 0.04 ppm)?
**A.** 0%

**Q.** And the inhibition of growth at 0.2 ppm (Colletotrichum coccodes)?
**A.** 4%

**Q.** What about the inhibition of growth at 0.008 ppm (Colletotrichum coccodes; applied alone, 0.008 ppm) of the same compound?
**A.** 0%

**Q.** And the inhibition of growth at 0.04 ppm (Colletotrichum coccodes; applied alone, 0.04 ppm)?
**A.** 0%

**Q.** And the inhibition of growth at 0.2 ppm (Colletotrichum coccodes; applied alone)?
**A.** 0%

**Q.** And the inhibition of growth at 0.008 ppm (Colletotrichum coccodes; single active compound at 0.008 ppm)?
**A.** 0%

**Q.** And the inhibition of growth at 0.04 ppm (Colletotrichum coccodes; single active compound at 0.04 ppm)?
**A.** 7%

**Q.** What about the inhibition of growth at 1 ppm (Colletotrichum coccodes; single active compound at 1 ppm) of the same compound?
**A.** 87%
